The test system of test [1] is Human primary keratinocytes. Briefly: Keratinocyte growth in culture media: rhodamine B staining, confluency measured with Operetta plate reader. Type of test: cell-based. To be noted: for effect of ROCK inhibitor on keratinocyte growth, FIG. 3: Y27632 10 μm vs SB772077B 400 nM in Base, Kelch's or Green's medium, 3 donors; for effect of Y27632 on keratinocyte growth, FIG. 5: 8 days.

For another test, the system named is epidermal cells. Nature of the test: Greens, Cellntech, S7, EDGS medium comparison (rhodamine B, confluency score 0 to 4). Type of test: cell-based. To be noted: added to Green's medium with MEFs and commercial keratinocyte growth media. On the procedure: Epidermal cells were grown in Greens medium with MEFs, CnT Prime, Epilife medium supplemented with S7 or EDGS. All media were tested with and without ROCK inhibitor Y27632. 550,000 epidermal cells were grown in each medium until one sample reached 80% confluence, at this point all samples were fixed and stained for rhodamine B. Sample confluency was then assigned a score between 0 and 4, 0 having no cells, and 4 having maximum confluency. N=2.
Flasks were pre-coated with a coating matrix for S7 and EDGS supplemented Epilife medium samples. 1.7 ml of dilution buffer was added to each T25 flask. Then 17 μl of coating matrix was added. The mixture was incubated at room temperature for 30 minutes. Next, the dilution buffer and coating matrix mix were removed from the flasks before adding cells and media.
550,000 epidermal cells and 5 ml of each required medium was added, with or without 10 μl Y27632, to a T25 flask. The flask was incubated at 37° C. with 5% CO2 until one sample reached 80% confluency.
Next, the medium was removed from the flasks and the cells fixed with 4% formaldehyde for 30 minutes. 1% rhodamine B solution was added and the cells incubated at room temperature for 10 minutes. The rhodamine B solution was removed and the cells thoroughly rinsed with water. Finally, all liquid from the flasks was removed using a pipette. The cells were imaged and confluency was calculated.

[2] abbreviates: Green's media + Y27632, MEFs not present.

Entries after “also recorded” stand apart in the source; their conditions may differ. Where a name gives a salt, the structure may show the parent alone. Read-outs that look alike come from different tables or passages of the source.

For the molecule `CCn1c(-c2nonc2N)nc2cncc(C(=O)N3CC[C@H](N)C3)c21` [SB772077B, (3S)-1-[[2-(4-Amino-1,2,5-oxadiazol-3-yl)-1-ethyl-1H-imidazo[4,5-c]pyridin-7-yl]carbonyl]-3-pyrrolidinamine dihydrochloride, reference compound], the “ROCK inhibitor concentration to achieve the same effect (enhancing keratinocyte growth rates)” value in test [1] (SB 772077B vs Y27632) is approximately 400 nm. Further, the “effect of ROCK inhibitor on keratinocyte growth, FIG. 3” value in test [1] (dihydrochloride) is recorded as “comparable effects on keratinocyte growth; also recorded: can be used as substitute for Y27632 for keratinocyte growth”.

`C[C@@H](N)[C@H]1CC[C@H](C(=O)Nc2ccncc2)CC1` [Y27632, reference compound]: the “effect of ROCK inhibitor on keratinocyte growth, FIG. 3” value in test [1] is on record as “comparable effects on keratinocyte growth”. Moreover, the “ROCK inhibitor concentration to achieve the same effect (enhancing keratinocyte growth rates)” value in test [1] (Y27632 vs SB 772077B) is reported as 10 μm. For the same molecule, the figures for the “effect of Y27632 on keratinocyte growth, FIG. 5” value in test [1] (added to Green's medium with MEFs) and in test [1] (added to serum-free Optipeak media) were “can enhance growth of keratinocytes” and “enhanced growth of keratinocytes; also recorded: a few colonies started to develop”, respectively. The “effect of Y27632 on keratinocyte growth, FIG. 6” value in the test with epidermal cells is “may also enhance growth of keratinocytes in other keratinocyte growth media; also recorded: enhanced keratinocyte growth in Green's medium, S7 medium and CnT Prime medium”.

Consider `Nc1ncnc2nc[nH]c12` [adenine], for which the “effect on keratinocyte growth of leaving one component out of Green's media, FIG. 1” value (from here on “effect on keratinocyte growth”) in test [1] (setting [2]) is “appears to enhance growth of keratinocytes”.

On to “EGF: epidermal growth factor, component of Green's medium at 10 ng/ml (NSDSECPLSHDGYCLHDGVCMYIEALDKYACNCVVGYIGERCQYRDLKWWELR; Epidermal growth factor; UniProt P01133 971-1023, looked up)”, for which the “effect on keratinocyte growth” value in test [1] (setting [2]) is recorded as “important components of Green's medium in generating keratinocyte proliferation; also recorded: negatively affect keratinocyte growth”. Moreover, the “effect of EGF on keratinocyte growth (later finding)” value in test [1] (data not shown) was “not enhancing keratinocyte growth”.

On to choleratoxin, for which the “effect on keratinocyte growth” value in test [1] was “important components of Green's medium in generating keratinocyte proliferation; also recorded: negatively affect keratinocyte growth; also recorded: one of the most important single ingredients of Green's media”.

The values above are taken from patent US20250179429A1, “CELL CULTURE MEDIUM” (Auckland UniServices Limited, priority 2017, published 2025).
